# According to ChEMBL document CHEMBL5465560, “Selectivity Literature for EUbOPEN Chemogenomic Library” (2024):
# Numbering of substitutions follows the chain as printed.
# Assays:
# Conditions in all cases: at 1 µM
# [1] = system: T1, Receptor-type tyrosine-protein kinase FLT3 (Homo sapiens), P36888 [R834Q]; assay: (§1) Selectivity interaction (KinomeScan (DiscoverX)) EUB0001079a FLT3
# T1 sequence (whole entry): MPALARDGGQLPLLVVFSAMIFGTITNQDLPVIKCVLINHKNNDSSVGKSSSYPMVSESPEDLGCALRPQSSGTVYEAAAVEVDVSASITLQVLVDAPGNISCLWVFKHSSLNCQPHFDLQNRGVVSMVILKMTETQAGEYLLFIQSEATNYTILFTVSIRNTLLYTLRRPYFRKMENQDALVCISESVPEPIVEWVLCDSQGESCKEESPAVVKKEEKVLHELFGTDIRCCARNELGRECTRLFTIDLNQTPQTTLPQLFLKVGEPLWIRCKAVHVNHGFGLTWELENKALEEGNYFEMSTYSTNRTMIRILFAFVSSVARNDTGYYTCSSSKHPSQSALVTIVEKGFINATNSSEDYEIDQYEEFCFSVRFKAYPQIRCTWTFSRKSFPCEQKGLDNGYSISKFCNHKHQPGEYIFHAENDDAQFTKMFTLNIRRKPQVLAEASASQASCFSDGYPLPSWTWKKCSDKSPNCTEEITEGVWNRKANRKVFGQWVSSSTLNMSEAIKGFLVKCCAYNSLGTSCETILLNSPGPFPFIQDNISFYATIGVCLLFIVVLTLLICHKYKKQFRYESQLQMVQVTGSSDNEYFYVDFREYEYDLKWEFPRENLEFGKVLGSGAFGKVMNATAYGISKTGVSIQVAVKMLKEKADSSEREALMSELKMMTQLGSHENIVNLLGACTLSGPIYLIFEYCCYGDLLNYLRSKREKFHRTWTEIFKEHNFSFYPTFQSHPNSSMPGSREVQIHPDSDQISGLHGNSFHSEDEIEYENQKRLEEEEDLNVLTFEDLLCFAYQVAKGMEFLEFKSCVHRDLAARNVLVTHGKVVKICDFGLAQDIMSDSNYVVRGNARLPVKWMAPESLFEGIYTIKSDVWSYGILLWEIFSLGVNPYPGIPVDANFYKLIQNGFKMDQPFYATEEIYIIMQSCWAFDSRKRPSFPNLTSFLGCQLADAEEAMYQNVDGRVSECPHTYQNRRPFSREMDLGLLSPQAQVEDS
# [2] = molecular target: Receptor-type tyrosine-protein kinase FLT3 (Homo sapiens) (UniProt P36888); assay: as §1
# [3] = system: T2, Receptor-type tyrosine-protein kinase FLT3 (Homo sapiens), P36888 [D835H]; assay: as §1
# T2 sequence (whole entry): T1 sequence (whole entry) with Q834R, D835H
# [4] = system: T3, Receptor-type tyrosine-protein kinase FLT3 (Homo sapiens), P36888 [D835V]; assay: as §1
# T3 sequence (whole entry): T1 sequence (whole entry) with Q834R, D835V
compound,measurement,setting,value
Nc1cnc(N2CCc3cc(S(=O)(=O)Nc4c(F)cc(Cl)cc4F)cc(N4CCCC4=O)c32)nc1 [TP-020n],% of control,[1],77%
same,% of control,[2],81%
same,% of control,[3],100%
same,% of control,[4],100%
